Source: ChEMBL document CHEMBL1152357, “Synthesis and biological activity of heteroaryl 3-(1,1-dioxo-2H-(1,2,4)-benzothiadizin-3-yl)-4-hydroxy-2(1H)-quinolinone derivatives as hepatitis C virus NS5B polymerase inhibitors” (Bioorg Med Chem Lett, 2009)
pIC50: −log10 of the molar value.

Legend:
Hepatitis C virus [1] = test: Antiviral activity against HCV 1b infected in human hepatoma cells by replicon assay; assay type: functional, organism-based, Hepacivirus hominis; settings: genotype 1b
Albumin = Albumin (Homo sapiens, UniProt P02768); test: Binding affinity to human serum albumin; assay type: ADME; settings: isolated protein
Hepatitis C virus [2] = test: Inhibition of HCV 1b NS5B polymerase expressed in Sf9 cells; parameters: species or system Hepatitis C virus subtype 1b

Chain of Albumin (P02768 whole entry): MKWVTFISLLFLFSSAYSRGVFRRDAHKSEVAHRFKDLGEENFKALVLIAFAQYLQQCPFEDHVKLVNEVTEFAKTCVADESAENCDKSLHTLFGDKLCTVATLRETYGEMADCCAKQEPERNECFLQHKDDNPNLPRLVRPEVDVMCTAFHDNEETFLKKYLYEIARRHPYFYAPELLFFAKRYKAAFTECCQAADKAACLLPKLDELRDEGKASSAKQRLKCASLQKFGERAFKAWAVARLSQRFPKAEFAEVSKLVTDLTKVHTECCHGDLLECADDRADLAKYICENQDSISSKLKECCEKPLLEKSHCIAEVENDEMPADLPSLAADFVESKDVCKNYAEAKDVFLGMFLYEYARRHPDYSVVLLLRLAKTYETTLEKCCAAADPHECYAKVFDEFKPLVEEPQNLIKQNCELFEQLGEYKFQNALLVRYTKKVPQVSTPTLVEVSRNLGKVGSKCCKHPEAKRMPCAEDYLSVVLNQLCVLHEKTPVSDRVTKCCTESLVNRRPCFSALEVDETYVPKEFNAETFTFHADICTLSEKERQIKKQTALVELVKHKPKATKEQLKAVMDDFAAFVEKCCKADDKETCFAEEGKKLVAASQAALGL

| pIC50 (Hepatitis C virus [1]) | Activity (Albumin) [%] | pIC50 (Hepatitis C virus [2]) | SMILES |
| --- | --- | --- | --- |
| 6.38 | > 99.9 | – | CC(C)CCn1c(=O)c(C2=NS(=O)(=O)c3ccccc3N2)c(O)c2ccccc21 |
| 5.87 | > 99.9 | 6.67 | CC(C)CCn1c(=O)c(C2=NS(=O)(=O)c3ccccc3N2)c(O)c2cccnc21 |
| 7.28 | 98.4 | > 8.30 | CC(C)CCn1c(=O)c(C2=Nc3ccc(OCC(N)=O)cc3S(=O)(=O)N2)c(O)c2cccnc21 |
| 6.33 | 99 | 7.80 | CC(C)CCn1c(=O)c(C2=NS(=O)(=O)c3cc(O)ccc3N2)c(O)c2cccnc21 |
| 4.40 | 97.9 | 6.17 | CCN1CCC2=C(C1)S(=O)(=O)N=C(c1c(O)c3ccccc3n(CCC(C)C)c1=O)N2 |
| < 4.52 | 98.7 | 6.54 | CC(C)CCn1c(=O)c(C2=NS(=O)(=O)C3=C(CCN(CCc4nnn[nH]4)C3)N2)c(O)c2ccccc21 |
| 6.62 | 98.7 | > 8.30 | CC(C)CCn1c(=O)c(C2=NS(=O)(=O)c3cc(OCC(N)=O)ccc3N2)c(O)c2ccsc21 |
| – | 98 | 5.82 | CC(=O)N1CCC2=C(C1)S(=O)(=O)N=C(c1c(O)c3ccccc3n(CCC(C)C)c1=O)N2 |
| – | 97 | 5.48 | CC(C)CCn1c(=O)c(C2=NS(=O)(=O)c3ccccc3N2)c(O)c2cnn(C)c21 |
| – | – | < 4.52 | CSc1ncc2c(O)c(C3=NS(=O)(=O)c4ccccc4N3)c(=O)n(CCC(C)C)c2n1 |
| – | > 99.9 | 5.93 | CC(C)CCn1c(=O)c(C2=NS(=O)(=O)c3ccccc3N2)c(O)c2cc(Br)sc21 |
| – | 98.3 | 6.14 | CC(C)CCn1c(=O)c(C2=NS(=O)(=O)C3=C(CCN(CCCN)C3)N2)c(O)c2ccccc21 |
| < 4.70 | 98 | 6.54 | CC(C)CCn1c(=O)c(C2=NS(=O)(=O)C3=C(CCN(CCC(N)=O)C3)N2)c(O)c2ccccc21 |
| 5.54 | 99.5 | 7.70 | CC(C)CCn1c(=O)c(C2=NS(=O)(=O)c3ccsc3N2)c(O)c2ccccc21 |
| 5.77 | – | 7.29 | CC(C)CCn1c(=O)c(C2=NS(=O)(=O)c3cccnc3N2)c(O)c2ccccc21 |
| 5.93 | 99 | 7.80 | CC(C)CCn1c(=O)c(C2=NS(=O)(=O)c3cc(O)ccc3N2)c(O)c2sccc21 |
| 6.03 | > 99.9 | < 7.32 | CC(C)CCn1c(=O)c(C2=NS(=O)(=O)c3ccccc3N2)c(O)c2sccc21 |
| – | 97.6 | 6.06 | COC(=O)CN1CCC2=C(C1)S(=O)(=O)N=C(c1c(O)c3ccccc3n(CCC(C)C)c1=O)N2 |
| 4.86 | – | 7.80 | CC(C)CCn1c(=O)c(C2=NS(=O)(=O)c3c(cc[nH]c3=O)N2)c(O)c2ccccc21 |
| – | 99.4 | 6.01 | CC(C)CCn1c(=O)c(C2=NS(=O)(=O)C3=C(CCN(C(=O)Nc4ccccc4)C3)N2)c(O)c2ccccc21 |
| 6.27 | 98.8 | 7.92 | O=c1c(C2=NS(=O)(=O)c3cc(O)ccc3N2)c(O)c2cccnc2n1CCC1CC1 |

| pIC50 (Hepatitis C virus [1]) | Activity (Albumin) [%] | pIC50 (Hepatitis C virus [2]) | SMILES |
| --- | --- | --- | --- |
| 6.65 | 99 | 7.70 | CC(C)CCn1c(=O)c(C2=NS(=O)(=O)c3cnccc3N2)c(O)c2ccccc21 |
| 4.91 | 98.2 | 6.22 | CC(C)CCn1c(=O)c(C2=NS(=O)(=O)C3=C(CCNC3)N2)c(O)c2ccccc21 |
| 7.82 | 99.2 | 8.22 | CC(C)CCn1c(=O)c(C2=NS(=O)(=O)c3cc(OCC(N)=O)ccc3N2)c(O)c2ccccc21 |
| 7.29 | 97.8 | > 8.30 | NC(=O)COc1ccc2c(c1)S(=O)(=O)N=C(c1c(O)c3cccnc3n(CCC3CC3)c1=O)N2 |
| 6.94 | 98.3 | > 8.30 | CC(C)CCn1c(=O)c(C2=NS(=O)(=O)c3cc(O[C@H](C)C(N)=O)ccc3N2)c(O)c2sccc21 |
| < 4.70 | 98.5 | 6.70 | Cc1nn(C)c2c1S(=O)(=O)N=C(c1c(O)c3ccccc3n(CCC(C)C)c1=O)N2 |
| 5.36 | – | 6.88 | CC(C)CCn1c(=O)c(C2=NS(=O)(=O)C3=C(CCN(CCC#N)C3)N2)c(O)c2ccccc21 |
| 5.62 | 97.7 | 7.74 | CC(C)CCn1c(=O)c(C2=NS(=O)(=O)c3c[n+]([O-])ccc3N2)c(O)c2ccccc21 |
| < 4.70 | – | 7.24 | CC(C)CCn1c(=O)c(C2=NS(=O)(=O)c3cc(Cl)sc3N2)c(O)c2ccccc21 |
| < 4.70 | – | 6.56 | CC(C)CCn1c(=O)c(C2=NS(=O)(=O)C3=C(CCN(CC(=O)O)C3)N2)c(O)c2ccccc21 |
| – | 98.2 | 6.11 | CNC(=O)N1CCC2=C(C1)S(=O)(=O)N=C(c1c(O)c3ccccc3n(CCC(C)C)c1=O)N2 |
| 6.13 | 98.7 | 7.51 | CC(C)CCn1c(=O)c(C2=NS(=O)(=O)c3ncccc3N2)c(O)c2ccccc21 |
| 5.93 | > 99.9 | 6.88 | CC(C)CCn1c(=O)c(C2=NS(=O)(=O)c3ccccc3N2)c(O)c2ccsc21 |
| – | – | 5.52 | CC(C)CCn1c(=O)c(C2=NS(=O)(=O)c3c(sc(Cl)c3Br)N2)c(O)c2ccccc21 |
| 6.90 | 98.3 | > 8.30 | CC(C)CCn1c(=O)c(C2=NS(=O)(=O)c3cc(OCC(N)=O)ccc3N2)c(O)c2sccc21 |
| 7.33 | 98.3 | > 8.30 | CC(C)CCn1c(=O)c(C2=NS(=O)(=O)c3cc(O[C@H](C)C(N)=O)ccc3N2)c(O)c2cccnc21 |
| – | – | < 4.52 | CC(C)CCn1c(=O)c(C2=NS(=O)(=O)c3ccccc3N2)c(O)c2cc(-c3ccccc3)sc21 |
| 6.33 | 99.1 | 7.60 | CC(C)CCn1c(=O)c(C2=NS(=O)(=O)c3cc(O)ccc3N2)c(O)c2ccsc21 |
| – | 97.6 | 5.31 | CC(C)CCn1c(=O)c(C2=NS(=O)(=O)c3ccccc3N2)c(O)c2cn[nH]c21 |
| – | 97.8 | > 8.30 | C[C@@H](Oc1ccc2c(c1)S(=O)(=O)N=C(c1c(O)c3cccnc3n(CCC3CC3)c1=O)N2)C(N)=O |
